Results taken from US7855309B2, “Pesticide benzyloxy- and phenetyl-substituted phenyl-amidine derivatives” (Bayer CropScience AG, priority 2005, dated 2010).
Read-outs that look alike come from different tables or passages of the source.

Assays:
[1] = logP by HPLC on reversed-phase column (EEC Directive 79/831 Annex V.A8); format: physicochemical; conditions: for chromatographic logP: reversed-phase HPLC column (C18)
Experimental: Temperature: 40° C.; Mobile phases: 0.1% aqueous formic acid and acetonitrile; linear gradient from 10% acetonitrile to 90% acetonitrile.
Calibration was carried out using unbranched alkan-2-ones (comprising 3 to 16 carbon atoms) with known logP values (determination of the logP values by the retention times using linear interpolation between two successive alkanones).

[2] = system: Aedes aegypti larvae; experiment: In vivo protective test on Aedes aegypti (AEDSAE U)
Experimental: In Vivo Protective Test on Aedes Aegypti (AEDSAE U)
Solvent: 1% N-methylpyrrolidone (NMP)
• 1% diacetonealcohol Dye: brillantsulfoflavin for staining water
To produce a suitable preparation of the active compound, the active compound is mixed with the stated amount of solvent, and the concentrate is diluted with staining water to the desired concentration.
Aedes aegypti larvae are pipetted with a preparation of active ingredient of the desired concentration.
After the specified period of time, mortality in % is determined. 100% means that all larvae have been killed, a 0% means that none of the larvae have been killed.

[3] = system: Myzus persicae; experiment: In vivo protective test on Myzus persicae (MYZUPE); conditions: Chinese cabbage leaf-disks, all instars, spray
Experimental: In Vivo Protective Test on Myzus persicae (MYZUPE)
(§1) Solvent: 78 parts by weight acetone
• 1.5 parts by weight dimethylformamide Dye: 0.5 parts by weight alkylarylpolyglcolether
(§2) To produce a suitable preparation of active compound, 1 part by weight of active compound is mixed with the stated amount of solvent and emulsifier, and the concentrate is diluted with emulsifier-containing water to the desired concentration.
Chinese cabbage (Brassica pekinesis) leaf-disks infected with all instars of the green peach aphid (Myzus persicae), are sprayed with a preparation of the active ingredient at the desired concentration.
After the specified period of time, mortality in % is determined. 100% means that all aphids have been killed; 0% means that none of the aphids have been killed.

[4] = system: Heliothis viresens; experiment: In vivo protective test on Heliothis virescens (HELIVI); design: species or system Heliotis virescens; conditions: soybean leaf sections, eggs
Experimental: In Vivo Protective Test on Heliothis viresens (HELIVI)
as §1
• 1.5 parts by weight dimethylformamide Wetting agent: 0.5 parts by weight alkylarylpolyglcolether
as §2
Soybean (Glycine max.) leaf sections are sprayed with a preparation of the active ingredient of the desired concentration. Once dry, the leaf sections are infested with eggs of cotton bollworm (Heliotis virescens).
After the specified period of time, mortality in % is determined. 100% means that all eggs have been killed and 0% means that none of the eggs have been killed.

[5] = HPLC, C18, 40° C., 0.1% aqueous formic acid and acetonitrile

SMILES	log P [1, 5]	activity (mortality) [3]	also measured
CCN(C)/C=N/c1cc(C)c(OCc2cccc(C(F)(F)F)c2)cc1C [Compound 9, N′-(2,5-dimethyl-4-{[3-(trifluoromethyl)benzyl]oxy}phenyl)-N-ethyl-N-methylimidoformamide]	–	–	chromatographic logP ([1]; pH 2.3, read-out: log P (pH 2.3)): 2.24; chromatographic logP ([1]; HPLC, C18, 40° C., 0.1% aqueous formic acid and acetonitrile, read-out: log P): 2.24; activity (mortality) [2]: good activity
CCN(C)C=Nc1cc(C)c(OCc2cc(C)ccc2C)cc1C [Compound 56]	2.23	good activity	–
CCN(C)C=Nc1cc(C)c(OCc2ccc(Oc3ccc(F)cc3)cc2)cc1C [Compound 52]	2.8	good activity	–
CCN(C)C=Nc1cc(C)c(OC(C)c2ccc(Cl)cc2)cc1C (stereo not drawn) [Compound 31]	2.26	good activity	–
CCN(C)C=Nc1cc(C)c(OCc2ccc(C(F)(F)F)cc2)cc1C [Compound 14]	2.28	–	activity (mortality) [2]: good activity
CCN(C)C=Nc1cc(C)c(OCc2ccc(Oc3ccc(SC)cc3)cc2)cc1C [Compound 72]	2.74	good activity	–
CCN(C)C=Nc1cc(C)c(OCc2ccc(C(F)(F)F)cc2Cl)cc1C [Compound 25]	2.47	good activity	–
CCN(C)C=Nc1cc(C)c(OCc2ccccc2SC(F)(F)F)cc1C [Compound 68]	2.36	good activity	–
CCN(C)C=Nc1cc(C)c(OCc2ccc(Cl)c(Cl)c2)cc1C [Compound 13]	2.38	good activity	activity (mortality) [2]: good activity
CCN(C)C=Nc1cc(C)c(OCc2cccc(OCC(F)(F)F)c2)cc1C [Compound 49]	2.21	good activity	–
CCN(C)C=Nc1cc(C)c(OCc2cc(Cl)cc(C(F)(F)F)c2)cc1C [Compound 19]	2.54	good activity	–
CCN(C)C=Nc1cc(C)c(OCc2ccc(Cl)cc2)cc1C [Compound 1]	2.14	–	activity (mortality) [2]: good activity
CCN(C)C=Nc1cc(C)c(OCc2ccc(C)c(C)c2)cc1C [Compound 64]	2.23	good activity	–
CCN(C)C=Nc1cc(C)c(OCc2cccc(SC(F)(F)F)c2)cc1C [Compound 69]	2.45	good activity	–
CCN(C)C=Nc1cc(C)c(OCc2ccccc2OC(F)(F)F)cc1C [Compound 16]	2.28	good activity	–
CCN(C)C=Nc1cc(C)c(OC(C)c2c(Cl)cccc2Cl)cc1C (stereo not drawn) [Compound 4]	2.52	–	activity (mortality) [2]: good activity
CCN(C)C=Nc1cc(C)c(OC(C)c2ccc(F)cc2)cc1C (stereo not drawn) [Compound 6]	2.08	–	activity (mortality) [2]: good activity; activity (mortality) [4]: good activity
CCN(C)C=Nc1cc(C)c(OCc2c(F)cccc2Cl)cc1C [Compound 61]	2.09	good activity	–
CCN(C)C=Nc1cc(C)c(OC(C)c2cccc(Cl)c2)cc1C (stereo not drawn) [Compound 30]	2.23	good activity	–
CCN(C)C=Nc1cc(C)c(CCc2cc(C(F)(F)F)cc(C(F)(F)F)c2)cc1C [Compound 35]	2.79	good activity	–
CCN(C)C=Nc1cc(C)c(OCc2cccc(Cl)c2)cc1C [Compound 7]	2.13	–	activity (mortality) [2]: good activity; activity (mortality) [4]: good activity
CCN(C)C=Nc1cc(C)c(OC(C)c2ccccc2Cl)cc1C (stereo not drawn) [Compound 29]	2.24	good activity	activity (mortality) [2]: good activity
CCN(C)C=Nc1cc(C)c(OCc2c(Cl)cccc2Cl)cc1C [Compound 3]	2.05	good activity	activity (mortality) [2]: good activity
CCN(C)C=Nc1cc(C)c(OCc2cccc(Br)c2)cc1C [Compound 65]	2.18	good activity	–

SMILES	log P [1, 5]	activity (mortality) [3]	also measured
CCN(C)C=Nc1cc(C)c(OCc2ccc(Oc3ccc(Cl)cc3)cc2)cc1C [Compound 73]	2.8	good activity	–
CCN(C)C=Nc1cc(C)c(OCc2ccccc2C)cc1C [Compound 66]	2.06	–	–
CCN(C)C=Nc1cc(C)c(OCc2ccc(OCc3ccccc3)cc2)cc1C [Compound 79]	2.51	–	–
CCN(C)C=Nc1cc(C)c(OCc2ccccc2OC(F)F)cc1C [Compound 26]	2.03	–	–
CCN(C)C=Nc1cc(C)c(OCc2c(F)cccc2F)cc1C [Compound 48]	1.94	–	–
CCN(C)C=Nc1cc(C)c(OCc2cccc(C#N)c2)cc1C [Compound 74]	1.83	–	–
CCN(C)C=Nc1cc(C)c(OCc2ccc3ccccc3c2)cc1C [Compound 62]	2.29	–	–
CCN(C)C=Nc1cc(C)c(OCc2ccc(Cl)cc2C(F)(F)F)cc1C [Compound 18]	2.52	good activity	activity (mortality) [2]: good activity
CCN(C)C=Nc1cc(C)c(OCc2cc(C(F)(F)F)ccc2Cl)cc1C [Compound 20]	2.44	good activity	–
CCN(C)C=Nc1cc(C)c(OCc2cccc(OC)c2)cc1C [Compound 81]	1.97	–	–
CCN(C)C=Nc1cc(C)c(CCc2ccccc2C)cc1C [Compound 38]	2.38	–	–
CCN(C)C=Nc1cc(C)c(OCc2ccccc2F)cc1C [Compound 11]	1.94	–	–
Cc1ccc(COc2cc(C)c(N=CN3CCCCC3)cc2C)cc1 [Compound 124]	2.23	–	–
CCN(C)C=Nc1cc(C)c(CCc2ccc(C(F)(F)F)cc2)cc1C [Compound 46]	2.45	–	–
CCN(C)C=Nc1cc(C)c(OCc2ccccc2C#N)cc1C [Compound 58]	1.78	–	–
CCN(C)C=Nc1cc(C)c(OCc2ccc(F)cc2)cc1C [Compound 2]	1.99	–	–
Cc1cc(OCc2cc(Cl)cc(C(F)(F)F)c2)c(C)cc1N=CN1CCCCC1 [Compound 118]	2.61	–	–
Cc1cc(OCc2cc3c(cc2Cl)OCO3)c(C)cc1N=CN1CCCCC1 [Compound 92]	2.16	–	–
CCN(C)C=Nc1cc(C)c(CCc2cccc(C(F)(F)F)c2)cc1C [Compound 43]	2.41	–	–
CCN(C)C=Nc1cc(C)c(CCc2ccc(OC)cc2)cc1C [Compound 39]	2.04	–	–
Cc1cc(OCc2c(F)cccc2Cl)c(C)cc1N=CN1CCCCC1 [Compound 101]	2.16	–	–
COc1cc(COc2cc(C)c(N=CN3CCCCC3)cc2C)ccc1F [Compound 121]	2.06	–	–
CCN(C)C=Nc1cc(C)c(CCc2cccc(Cl)c2)cc1C [Compound 36]	2.2	–	–
